Test results taken from patent US20230085307A1, “PYRIDAZINONE COMPOUND AND HERBICIDE” (NISSAN CHEMICAL CORPORATION, priority 2019, published 2023).

How the values were obtained:
windgrass = test: Test Example 5: herbicidal effect by foliage application, plastic box (Table 20, symbol L); assay type: in vivo, windgrass (Apera spica-venti); conditions: evaluated three weeks after application
Summary of the method: (§1)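 Foliar spray test: emulsion formulation diluted in water to a set application rate, sprayed onto 14-day-old plants raised in diluvial soil at 25° C to 30° C under glass. Both herbicidal effect and crop effect rated visually three weeks later.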

barnyard grass [1] = test: Test Example 3: herbicidal effect by foliage application, Wagner pot (Table 18, symbol H); assay type: in vivo, barnyard grass (Echinochloa crus-galli); conditions: for herbicidal effect on barnyard grass (H): 320 g/ha
Summary of the method: (§2)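 Plants were sown in alluvial soil held under 0.1–0.5 cm standing water and grown 14 days in a greenhouse at 25–30 °C. An emulsifiable formulation, water-diluted to the set dose, was then sprayed onto the foliage, and effects were scored three weeks later using previously defined criteria.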

chickweed = test: Test Example 5: herbicidal effect by foliage application, plastic box (Table 20, symbol P); assay type: in vivo, common chickweed (Stellaria media); conditions: evaluated three weeks after application
Summary of the method: as §1

wild oat = test: Test Example 5: herbicidal effect by foliage application, plastic box (Table 20, symbol I); assay type: in vivo, wild oat (Avena fatua); conditions: evaluated three weeks after application
Summary of the method: as §1

redroot pigweed = test: Test Example 5: herbicidal effect by foliage application, plastic box (Table 20, symbol N); assay type: in vivo, redroot pigweed (Amaranthus retroflexus); conditions: evaluated three weeks after application
Summary of the method: as §1

green foxtail = test: Test Example 5: herbicidal effect by foliage application, plastic box (Table 20, symbol G); assay type: in vivo, green foxtail (Setaria viridis); conditions: evaluated three weeks after application
Summary of the method: as §1

southern crabgrass = test: Test Example 5: herbicidal effect by foliage application, plastic box (Table 20, symbol F); assay type: in vivo, southern crabgrass (Digitaria ciliaris); conditions: evaluated three weeks after application
Summary of the method: as §1

persian speedwell = test: Test Example 5: herbicidal effect by foliage application, plastic box (Table 20, symbol R); assay type: in vivo, Persian speedwell (Veronica persica); conditions: evaluated three weeks after application
Summary of the method: as §1

barnyard grass [2] = test: Test Example 5: herbicidal effect by foliage application, plastic box (Table 20, symbol H); assay type: in vivo, barnyard grass (Echinochloa crus-galli); conditions: evaluated three weeks after application
Summary of the method: as §1

velvetleaf = test: Test Example 5: herbicidal effect by foliage application, plastic box (Table 20, symbol M); assay type: in vivo, velvetleaf (Abutilon theophrasti); conditions: evaluated three weeks after application
Summary of the method: as §1

lambsquarters = test: Test Example 5: herbicidal effect by foliage application, plastic box (Table 20, symbol O); assay type: in vivo, lambsquarters (Chenopodium album); conditions: evaluated three weeks after application
Summary of the method: as §1

Italian ryegrass = test: Test Example 5: herbicidal effect by foliage application, plastic box (Table 20, symbol K); assay type: in vivo, Italian ryegrass (Lolium multiflorum); conditions: evaluated three weeks after application
Summary of the method: as §1

Chinese sprangletop = test: Test Example 3: herbicidal effect by foliage application, Wagner pot (Table 18, symbol D); assay type: in vivo, chinese sprangletop (Leptochloa chinensis); conditions: for herbicidal effect on Chinese sprangletop (D): 320 g/ha
Summary of the method: as §2

rice flat sedge = test: Test Example 3: herbicidal effect by foliage application, Wagner pot (Table 18, symbol E); assay type: in vivo, rice flat sedge (Cyperus iria); conditions: for herbicidal effect on rice flat sedge (E): 320 g/ha
Summary of the method: as §2

blackgrass = test: Test Example 5: herbicidal effect by foliage application, plastic box (Table 20, symbol J); assay type: in vivo, blackgrass (Alopecurus myosuroides); conditions: evaluated three weeks after application
Summary of the method: as §1

[3] = amount of applied herbicide 320 g/ha, foliage application after 14-day growth
[4] = amount of applied herbicide 320 g/ha
[5] = 320 g/ha, foliage application after 14-day growth

**Q.** With `Cc1nn(C)c(=O)c(-c2c(-c3ccc(C#N)cc3)sc3cc(Cl)c(Cl)cc23)c1O` [5-049] as the compound, how does the “Herbicidal effect by foliage application, L: windgrass” value (windgrass; [3]) read?
**A.** 3 (Herbicidal rate of 40% or more and less than 70%)

**Q.** What about the “herbicidal effect on barnyard grass (H)” value (barnyard grass [1]) of the same compound?
**A.** 3 (Herbicidal rate of 40% or more and less than 70%)

**Q.** And the “Herbicidal effect by foliage application, P: chickweed” value (chickweed; [3])?
**A.** 0 (Herbicidal rate of 5% or less (almost no effect))

**Q.** What about the “Herbicidal effect by foliage application, I: wild oat” value (wild oat; [3]) of the same compound?
**A.** 0 (Herbicidal rate of 5% or less (almost no effect))

**Q.** What about the “Herbicidal effect by foliage application, N: redroot pigweed” value (redroot pigweed; [3]) of the same compound?
**A.** 5 (Herbicidal rate of 90% or more (almost completely withered))

**Q.** What about the “Herbicidal effect by foliage application, G: green foxtail” value (green foxtail; [3]) of the same compound?
**A.** 2 (Herbicidal rate of 20% or more and less than 40%)

**Q.** And the “Herbicidal effect by foliage application, F: southern crabgrass” value (southern crabgrass; [3])?
**A.** 0 (Herbicidal rate of 5% or less (almost no effect))

**Q.** And the “Herbicidal effect by foliage application, R: persian speedwell” value (persian speedwell; [3])?
**A.** 0 (Herbicidal rate of 5% or less (almost no effect))

**Q.** And the “Herbicidal effect by foliage application, H: barnyard grass” value (barnyard grass [2]; [3])?
**A.** 0 (Herbicidal rate of 5% or less (almost no effect))

**Q.** And the “Herbicidal effect by foliage application, M: velvetleaf” value (velvetleaf; [3])?
**A.** 1 (Herbicidal rate of 5% or more and less than 20%)

**Q.** What about the “Herbicidal effect by foliage application, O: lambsquarters” value (lambsquarters; [3]) of the same compound?
**A.** 4 (Herbicidal rate of 70% or more and less than 90%)

**Q.** And the “Herbicidal effect by foliage application, K: Italian ryegrass” value (Italian ryegrass; [3])?
**A.** 0 (Herbicidal rate of 5% or less (almost no effect))

**Q.** What about the “herbicidal effect on Chinese sprangletop (D)” value (Chinese sprangletop) of the same compound?
**A.** 0 (Herbicidal rate of 5% or less (almost no effect))

**Q.** And the “herbicidal effect on rice flat sedge (E)” value (rice flat sedge)?
**A.** 0 (Herbicidal rate of 5% or less (almost no effect))

**Q.** And the “Herbicidal effect by foliage application, J: blackgrass” value (blackgrass; [3])?
**A.** 0 (Herbicidal rate of 5% or less (almost no effect))

**Q.** What does the source list for `Cc1nn(C)c(=O)c(-c2c(-c3cccc(OC(F)F)c3)sc3ccc(F)cc23)c1O` [2-234]?
**A.** herbicidal effect on L: windgrass (criteria 0-5) (windgrass; foliage application, 320 g/ha): 0 (Herbicidal rate of 5% or less (almost no effect)); herbicidal effect on H: barnyard grass (barnyard grass [1]; [4]): 3 (Herbicidal rate of 40% or more and less than 70%); herbicidal effect on P: chickweed (criteria 0-5) (chickweed; foliage application, 320 g/ha): 5 (Herbicidal rate of 90% or more (almost completely withered)); herbicidal effect on I: wild oat (criteria 0-5) (wild oat; foliage application, 320 g/ha): 0 (Herbicidal rate of 5% or less (almost no effect)); herbicidal effect on N: redroot pigweed (criteria 0-5) (redroot pigweed; foliage application, 320 g/ha): 4 (Herbicidal rate of 70% or more and less than 90%); herbicidal effect on G: green foxtail (criteria 0-5) (green foxtail; foliage application, 320 g/ha): 0 (Herbicidal rate of 5% or less (almost no effect)); herbicidal effect on F: southern crabgrass (criteria 0-5) (southern crabgrass; foliage application, 320 g/ha): 0 (Herbicidal rate of 5% or less (almost no effect)); herbicidal effect on R: persian speedwell (criteria 0-5) (persian speedwell; foliage application, 320 g/ha): 5 (Herbicidal rate of 90% or more (almost completely withered)); herbicidal effect on H: barnyard grass (criteria 0-5) (barnyard grass [2]; foliage application, 320 g/ha): 0 (Herbicidal rate of 5% or less (almost no effect)); herbicidal effect on M: velvetleaf (criteria 0-5) (velvetleaf; foliage application, 320 g/ha): 0 (Herbicidal rate of 5% or less (almost no effect)); herbicidal effect on O: lambsquarters (criteria 0-5) (lambsquarters; foliage application, 320 g/ha): 2 (Herbicidal rate of 20% or more and less than 40%); herbicidal effect on K: Italian ryegrass (criteria 0-5) (Italian ryegrass; foliage application, 320 g/ha): 0 (Herbicidal rate of 5% or less (almost no effect)); herbicidal effect on D: Chinese sprangletop (Chinese sprangletop; [4]): 0 (Herbicidal rate of 5% or less (almost no effect)); herbicidal effect on E: rice flat sedge (rice flat sedge; [4]): 0 (Herbicidal rate of 5% or less (almost no effect)); herbicidal effect on J: blackgrass (criteria 0-5) (blackgrass; foliage application, 320 g/ha): 0 (Herbicidal rate of 5% or less (almost no effect))

**Q.** What does the source list for `CCCC(=O)Oc1c(C)nn(C)c(=O)c1-c1c(-c2ccccc2CC)sc2c(Cl)cccc12` [4-063]?
**A.** herbicidal effect on L: windgrass (evaluation grade 0-5) (windgrass; [5]): 0 (Herbicidal rate of 5% or less (almost no effect)); herbicidal effect on barnyard grass (H) (barnyard grass [1]): 5 (Herbicidal rate of 90% or more (almost completely withered)); herbicidal effect on P: chickweed (evaluation grade 0-5) (chickweed; [5]): 0 (Herbicidal rate of 5% or less (almost no effect)); herbicidal effect on I: wild oat (evaluation grade 0-5) (wild oat; [5]): 0 (Herbicidal rate of 5% or less (almost no effect)); herbicidal effect on N: redroot pigweed (evaluation grade 0-5) (redroot pigweed; [5]): 3 (Herbicidal rate of 40% or more and less than 70%); herbicidal effect on G: green foxtail (evaluation grade 0-5) (green foxtail; [5]): 0 (Herbicidal rate of 5% or less (almost no effect)); herbicidal effect on F: southern crabgrass (evaluation grade 0-5) (southern crabgrass; [5]): 0 (Herbicidal rate of 5% or less (almost no effect)); herbicidal effect on R: persian speedwell (evaluation grade 0-5) (persian speedwell; [5]): 0 (Herbicidal rate of 5% or less (almost no effect)); herbicidal effect on H: barnyard grass (evaluation grade 0-5) (barnyard grass [2]; [5]): 0 (Herbicidal rate of 5% or less (almost no effect)); herbicidal effect on M: velvetleaf (evaluation grade 0-5) (velvetleaf; [5]): 0 (Herbicidal rate of 5% or less (almost no effect)); herbicidal effect on O: lambsquarters (evaluation grade 0-5) (lambsquarters; [5]): 1 (Herbicidal rate of 5% or more and less than 20%); herbicidal effect on K: Italian ryegrass (evaluation grade 0-5) (Italian ryegrass; [5]): 0 (Herbicidal rate of 5% or less (almost no effect)); herbicidal effect on Chinese sprangletop (D) (Chinese sprangletop): 3 (Herbicidal rate of 40% or more and less than 70%); herbicidal effect on rice flat sedge (E) (rice flat sedge): 4 (Herbicidal rate of 70% or more and less than 90%); herbicidal effect on J: blackgrass (evaluation grade 0-5) (blackgrass; [5]): 0 (Herbicidal rate of 5% or less (almost no effect))
